Tests used:
Format in all cases: in vivo
Golden Syrian Hamsters = assay: Serum cholesterol of hamsters on lithogenic diet; conditions: Lithogenic diet 1 + BAFAC II 150 mg/kg/day by gavage, 10 W
Method: Golden Syrian Hamsters-(Anilab, Rehovot, Israel) 4-6 weeks old weighing 90-110 gm were used. They were fed a lithogenic diet (No. 1) consisting of their regular diet supplemented with (w/w) cholesterol 1%, Palmitic Acid 1.2%, Corn Oil 2% (modified from Ayvad et al., Lipids, 1992; 27:993-998) for 10 weeks. Half of the animals were given in addition 3β-arachidylamido-7α,12α-dihydroxy-5β-cholan-24-oic acid at a dose of 150 mg/kg/day suspended in saline, by intragastric gavage. The control animals were similarly given an equal volume of saline. After ten weeks the animals were anesthetized, heart blood was drawn for analysis. The liver and other organs were removed. Serum cholesterol levels were determined by autoanalyzer.

[1] = test system: Golden Syrian Male Hamsters; assay: Fatty liver histologic score, hamsters; conditions: Lithogenic diet 1 + BAFAC 150 mg/kg/day, 10 W
Method: The presence of fatty liver was evaluated by a pathologist unaware of the treatments, scoring coded slides in a blinded manner.
The scoring system was as follows:
Golden Syrian Male Hamsters (Anilab, Rehovot, Israel) […] weighing 90-110 gm were used. They were fed a lithogenic diet (No 1). Half of the animals were given in addition 150 mg/kg/day of 3β-arachidylamido-7α,12α-dihydroxy-5β-cholan-24-oic acid. The compound was given suspended in saline, by intragastric gavage. Control animals were similarly given saline only. After 10 weeks the animals were anesthetized and sacrificed. The liver and other organs were removed and placed in formaline for histologic examination.

Inbred C57J/L mice = assay: Liver lipid/protein ratio, mice on high fat lithogenic diet; conditions: BAFAC 150 mg/Kg daily by gavage, 5 weeks
Method: Inbred C57J/L mice, 4 weeks old and weighing approx. 20 gm (Jackson Lab. Maine, USA) were used. They were fed for 5 weeks a high fat lithogenic diet consisting of: Cholesterol 1%, Cholic Acid 0.5%, lard 10%, butter 6%, palmitic acid 1.2% and corn oil 2% added (w/w) to their regular diet. In addition to the diet the animals were given daily, by gavage, either a BAFAC (150 mg/Kg) suspended in saline or an equal volume of saline only. The BAFACs were conjugates of cholic acid (at position 3) with either Palmitic Acid (C-16) or Arachidic Acid (C-20) or Behenic Acid (C-22) using an amide bond. The controls (n=5) received saline, the test animals received either the C-16 conjugate (n=5), the C-20 conjugate (n=5) or the C-22 conjugate (n=3). After 5 weeks, following an overnight fast, the animals were anesthetized using ketamine, the liver was removed, and the animals were sacrificed by ketamine overdose. A 0.5 gm sample of liver was homogenized in 5 ml of buffered saline. Liver lipids were extracted from the homogenate by the Folch method using chloroform:methanol (2:1, vol/vol). Half a ml of the homogenate were extracted in 5 ml of the Folch solution. After evaporation of the solvent the lipids were weighed and reevaporated several times until constant weight was obtained. The proteins were quantified in another aliquot of the homogenate according to the method of Bradford. (Bradford M. M., Annal Biochem. 1976, 72:248).
The lipid protein ratio (mg/mg) was calculated. The results for each group are given as means (+St. Dev.) The group values were: […]

human patients [2] = assay: Human study: change in HOMA (insulin resistance); conditions: for Change in HOMA from Baseline, Max / Change in HOMA from Baseline, Mean / Change in HOMA from Baseline, Median / Change in HOMA from Baseline, Min: 3 months
Method: (§1) The effects of BAFACs on disorders associated with Fatty liver, insulin resistance and altered glucose metabolism were tested on 60 human patients. Experiments were subdivided to 2 dosage regimens: Aramchol 300 mg daily (high dose) and 100 mg daily (low dose) respectively for a total period time of 3 months. The Aramchol:placebo ratio is of 2:1 for the low dose arm, and 1:1 for the high dose arms.
(§2) The study period included a 3 month treatment period with Aramchol low dose, or Aramchol high dose, or placebo, and a one month follow-up period. Aramchol was given daily orally. During the treatment period, all patients attended periodic […] (at first month) and subsequently monthly study-center visits in order to assess safety and efficacy of the treatment.
(§3) The results are shown using two known in the art principle statistical evaluation on, Intention-To-Treat (ITT) and Per Protocol (PP) populations. The ITT principle asserts that the effect of a treatment policy can be best assessed by evaluation on the basis of the intention to treat a subject (i.e. the planned treatment regimen) rather than the actual treatment given. It has the consequence that subjects allocated to a treatment group should be followed up, assessed and analyzed as members of that group irrespective of their compliance to the planned course of treatment. […] Compliance covers such considerations as exposure to treatment, availability of measurements and absence of major protocol violations.
Homeostatic model assessment (HOMA) is a method used to quantify insulin resistance and beta-cell function. The Dunnett method is used for multiple comparisons with a control group, and adjusts the data by age, gender, diagnosis, baseline HbA1c and baseline weight.

human patients [3] = assay: Human study: change in adiponectin; design: Change in Adiponectin from Baseline, Mean / Change in Adiponectin from Baseline, Median / Change in Adiponectin from Baseline, Max: unit not given here; conditions: for Change in Adiponectin from Baseline, Max / Change in Adiponectin from Baseline, Mean / Change in Adiponectin from Baseline, Median / Change in Adiponectin from Baseline, Min: 3 months
Method: as §1, §2, §3

Q: With `CCCCCCCCCCCCCCCCCCCC(=O)N[C@H]1CC[C@@]2(C)[C@@H](C1)C[C@@H](O)[C@@H]1[C@@H]2C[C@H](O)[C@]2(C)[C@@H]([C@H](C)CCC(=O)O)CC[C@@H]12` [Aramchol, 3β-arachidylamido-7α,12α-dihydroxy-5β-cholan-24-oic acid] as the compound, how does the “Serum Cholesterol (mean + StD)” value (Golden Syrian Hamsters) read?
A: 202 (59.6) mg %

Q: What about the “Fatty Liver Scores: number of animals with score 0” value ([1]; n 7, 0 - No fatty liver) of the same compound?
A: 6

Q: And the “Fatty Liver Scores: number of animals with score 2” value ([1]; n 7, 2 - Mild fatty liver)?
A: 1

Q: What about the “Fatty Liver Score, mean” value ([1]; score 0 (no fatty liver) to 4 (severe, >50% of liver surface)) of the same compound?
A: 0.28

Q: What about the “lipid protein ratio in liver, mean (+St. Dev.)” value (Inbred C57J/L mice) of the same compound?
A: 1.44 ± 1.18 mg/mg

Q: And the “Change in HOMA from Baseline, Max” value (human patients [2]; Aramchol 100 mg/d oral, ITT)?
A: 11.70

Q: And the “Change in HOMA from Baseline, Mean” value (human patients [2]; Aramchol 100 mg/d oral, ITT)?
A: 1.25

Q: And the “Change in HOMA from Baseline, Median” value (human patients [2]; Aramchol 100 mg/d oral, ITT)?
A: 0.20

Q: What about the “Change in HOMA from Baseline, Min” value (human patients [2]; Aramchol 100 mg/d oral, ITT) of the same compound?
A: −2.00

Q: What about the “Change in HOMA from Baseline, Max” value (human patients [2]; Aramchol 100 mg/d oral, PP) of the same compound?
A: 11.70

Q: What about the “Change in HOMA from Baseline, Mean” value (human patients [2]; Aramchol 100 mg/d oral, PP) of the same compound?
A: 1.13

Q: What about the “Change in HOMA from Baseline, Median” value (human patients [2]; Aramchol 100 mg/d oral, PP) of the same compound?
A: 0.20

Q: And the “Change in HOMA from Baseline, Min” value (human patients [2]; Aramchol 100 mg/d oral, PP)?
A: −2.00

Q: And the “Change in HOMA from Baseline, Max” value (human patients [2]; Aramchol 300 mg/d oral, ITT)?
A: 2.80

Q: What about the “Change in HOMA from Baseline, Mean” value (human patients [2]; Aramchol 300 mg/d oral, ITT) of the same compound?
A: −7.74

Q: And the “Change in HOMA from Baseline, Median” value (human patients [2]; Aramchol 300 mg/d oral, ITT)?
A: 0.20

Q: And the “Change in HOMA from Baseline, Min” value (human patients [2]; Aramchol 300 mg/d oral, ITT)?
A: −139.60

Q: What about the “Change in HOMA from Baseline, Max” value (human patients [2]; Aramchol 300 mg/d oral, PP) of the same compound?
A: 2.80

Q: And the “Change in HOMA from Baseline, Mean” value (human patients [2]; Aramchol 300 mg/d oral, PP)?
A: −7.74

Q: What about the “Change in HOMA from Baseline, Median” value (human patients [2]; Aramchol 300 mg/d oral, PP) of the same compound?
A: 0.20

Q: What about the “Change in HOMA from Baseline, Min” value (human patients [2]; Aramchol 300 mg/d oral, PP) of the same compound?
A: −139.60

Q: What about the “insulin resistance (in words)” value (human patients [2]; Aramchol 300 mg/d, tested subjects, Tables 3 and 4) of the same compound?
A: reduces insulin resistance

Q: What about the “Change in Adiponectin from Baseline, Max” value (human patients [3]; Aramchol 100 mg/d oral, ITT) of the same compound?
A: 11.1

Q: What about the “Change in Adiponectin from Baseline, Mean” value (“Change in Adiponectin … Mean” below) (human patients [3]; Aramchol 100 mg/d oral, ITT) of the same compound?
A: −3.4

Q: And the “Change in Adiponectin from Baseline, Median” value (“Change in Adiponectin … Median” below) (human patients [3]; Aramchol 100 mg/d oral, ITT)?
A: −2.7

Q: What about the “Change in Adiponectin from Baseline, Min” value (human patients [3]; Aramchol 100 mg/d oral, ITT) of the same compound?
A: −46.3

Q: What about the “Change in Adiponectin from Baseline, Max” value (human patients [3]; Aramchol 100 mg/d oral, PP) of the same compound?
A: 11.1

Q: And the “Change in Adiponectin … Mean” value (human patients [3]; Aramchol 100 mg/d oral, PP)?
A: −3.4

Q: And the “Change in Adiponectin … Median” value (human patients [3]; Aramchol 100 mg/d oral, PP)?
A: −2.3

Q: What about the “Change in Adiponectin from Baseline, Min” value (human patients [3]; Aramchol 100 mg/d oral, PP) of the same compound?
A: −46.3

Q: What about the “Change in Adiponectin from Baseline, Max” value (human patients [3]; Aramchol 300 mg/d oral, ITT) of the same compound?
A: 41.7

Q: And the “Change in Adiponectin … Mean” value (human patients [3]; Aramchol 300 mg/d oral, ITT)?
A: 1.8

Q: What about the “Change in Adiponectin … Median” value (human patients [3]; Aramchol 300 mg/d oral, ITT) of the same compound?
A: −1.3

Q: And the “Change in Adiponectin from Baseline, Min” value (human patients [3]; Aramchol 300 mg/d oral, ITT)?
A: −28.0

Q: And the “Change in Adiponectin from Baseline, Max” value (human patients [3]; Aramchol 300 mg/d oral, PP)?
A: 41.7

Q: What about the “Change in Adiponectin … Mean” value (human patients [3]; Aramchol 300 mg/d oral, PP) of the same compound?
A: 1.8

Q: What about the “Change in Adiponectin … Median” value (human patients [3]; Aramchol 300 mg/d oral, PP) of the same compound?
A: −1.3

Q: And the “Change in Adiponectin from Baseline, Min” value (human patients [3]; Aramchol 300 mg/d oral, PP)?
A: −28.0

Q: And the “levels of adiponectin (in words)” value (human patients [3]; Aramchol 300 mg/d, tested subjects, Tables 5 and 6)?
A: increases the levels of adiponectin

— US8975246B2, “Bile acid or bile salt fatty acid conjugates” (Galmed Research and Development Ltd., priority 2001, dated 2015)
